# According to patent US20200129528A1, “METHODS FOR TREATING BLOOD PRESSURE CONDITIONS USING AMINOSTEROL COMPOSITIONS” (Enterin, Inc., priority 2018, published 2020):
# Entries after “also recorded” stand apart in the source; their conditions may differ.
# Legend:
# [1] = system: patients with PD and constipation; experiment: Circadian rhythm of wrist skin temperature; format: in vivo, human; details: for circadian rhythm of wrist skin temperature (IS, RA, CFI, IV): 12 evaluable patients, fixed dose versus baseline
# Description: (6) I-Button Temperature Assessment. The 1-Button is a small, rugged self-sufficient system that measures temperature and records the results in a protected memory section. The Thermochron I-Button DS1921H (Maxim Integrated, Dallas, Tex.) was used for skin temperature measurement. I-Buttons were programmed to sample every 10 mins., and attached to a double-sided cotton sport wrist band using Velcro, with the sensor face of the I-Button placed over the inside of the wrist, on the radial artery of the dominant hand. Subjects removed and replaced the data logger when necessary (i.e., to have a bath or shower). The value of skin temperature assessment in sleep research is that the endogenous skin warming resulting from increased skin blood flow is functionally linked to sleep propensity. From the collected data, the mesor, amplitude, acrophase (time of peak temperature), Rayleight test (an index of interdaily stability), mean waveforms are calculated.);
# Assessments were made at baseline and at the end of the fixed dose and washout periods. Circadian system status was evaluated by continuously monitoring wrist skin temperature (Thermochron iButton DS1921H; Maxim, Dallas) following published procedures (Sarabia et al. 2008).
# Circadian rhythm of skin temperature was evaluable in 12 patients (i.e., those who had recordings that extended from baseline through washout). Circadian system functionality was evaluated by continuously monitoring wrist skin temperature using a temperature sensor (Thermochron iButton DS1921H; Maxim, Dallas, Tex.) (Sarabia et al. 2008). […]
# Briefly, this analysis includes the following parameters: (i) the inter-daily stability (the constancy of 24-hour rhythmic pattern over days, IS); (ii) intra-daily variability (rhythm fragmentation, IV); (iii) average of 10-minute intervals for the 10 hours with the minimum temperature (L10); (iv) average of 10-minute intervals for the 5 hours with the maximum temperature ([…]) and the relative amplitude (RA), which was determined by the difference between M5 and L10, divided by the sum of both. […]
# [2] = system: patients with PD and constipation; experiment: Phase 2 trial Stage 2: bowel function with daily oral dosing escalated to a fixed dose; format: in vivo, human
# Description: Following successful screening, all subjects underwent a 14-day run-in period where the degree of constipation was assessed through a validated daily log (Zinsmeister et al. 2013) establishing baseline CSBMs/week. Subjects with an average of <3 CSBMs/week proceeded to dosing.
# (§1) In Stage 2, 34 patients were evaluated. […] This dose was then maintained (“fixed dose”) fir an additional 3-5 days.
# The primary efficacy outcome variable was whether or not a subject was a “success” or “failure”. This is an endpoint based on subject diary entries for the “fixed dose” period prior to the endpoint assessment defined as average complete stool frequency increase by 1 or more over baseline, or 3 or more complete spontaneous stools/week. The subject was deemed a “success” if s/he met one or more of the criteria listed above, otherwise the subject was deemed a “failure”. The primary analysis was based on all subjects with a baseline assessment and an assessment at the end of the “fixed-dose” period and was a comparison of the proportion of successes with 0.10 (the null hypothesis corresponding to no treatment effect).
# The proportion of subjects for whom the drug was a success was estimated with a binomial point estimate and corresponding 95% confidence interval. A secondary analysis compared the proportions of subjects who are deemed a success at the end of the randomized fixed-dose period between those randomized to the squalamine (ENT-01) arm and those randomized to the placebo arm. A Fisher's exact test was used to compare the proportions of subjects who were deemed a success at the end of randomization period between the two randomized arms
# [3] = set-up: species or system rats; details: rat, in vivo
# [4] = system: patients with PD and constipation; experiment: Phase 2 trial Stage 1: adverse events; format: in vivo, human; details: Stage 1, 10 dosed
# Source text: Tolerability limits included diarrhea or vomiting.
# [5] = system: patients with PD and constipation; experiment: Phase 2 trial Stage 2: adverse events; format: in vivo, human
# Description: as §1
# [6] = system: patients with PD and constipation; experiment: Systolic blood pressure in Stage 1 (single dose); format: in vivo, human; details: lying position
# Source text: Normalization refers to lowering high blood pressure and raising low blood pressure into normal ranges. The numbers shown in the graph represent baseline BP then highest treatment BP, both in the lying position, pre-medication. The result is significant despite the small sample size (p=0.01).
structure (smiles),measurement,setting,value
"CC(C)[C@@H](CC[C@@H](C)[C@H]1CC[C@H]2[C@@H]3[C@H](O)C[C@H]4C[C@@H](NCCCNCCCCN)CC[C@]4(C)[C@H]3CC[C@]12C)OS(=O)(=O)O (single isomer, unassigned) [ENT-01, squalamine]","circadian rhythm of wrist skin temperature (IS, RA, CFI, IV)",[1],significant positive impact; also recorded: improved all markers of healthy circadian function
same,"circadian rhythm of wrist skin temperature (IS, RA, CFI, IV)",[1]; listed as Aminosterol,improved all markers of healthy circadian function
same,circadian rhythm parameters during wash-out,"[1]; wash-out period (IS, CFI)",persisted for several of these circadian parameters
same,"decrease of rescue medication use, baseline to fixed dose","[2]; Stage 2, 1.8/week to 0.3",83%
same,"improvement of SBM, baseline to fixed dose","[2]; Stage 2, 2.6 to 4.5",73%
same,Ease of passage (Ease of evacuation scale 1-7),"[2]; Stage 2, at fixed dose, mean (SD), baseline 3.2, listed as aminosterol",3.7
same,oral bioavailability,[3],limited bioavailability
same,absorption from the intestine,[3]; po,low
same,"Abdominal pain, mild",[4],"2(20) n, %"
same,"Abdominal pain, moderate",[4],"3(30) n, %"
same,"Diarrhea, mild",[4],"1(10) n, %"
same,"Diarrhea, moderate",[4],"3(30) n, %"
same,"Flatulence, mild",[4],"2(20) n, %"
same,"Headache, mild",[4],"1(10) n, %"
same,"Vomiting, mild",[4],"1(10) n, %"
same,"Blood in urine, mild",[4]; unrelated to ENT-01,"1(10) n, %"
same,"Loss of appetite, mild",[4]; unrelated to ENT-01,"1(10) n, %"
same,patients who withdrew during dosing because of diarrhea,[5]; Stage 2,2
same,"Difficulty falling asleep, mild","[5]; Stage 2, 34 dosed","1(3)^ n, %"
same,"Eye infection, mild","[5]; Stage 2, 34 dosed","1(3)^ n, %"
same,"Flatulence, mild","[5]; Stage 2, 34 dosed","1(3)^ n, %"
same,"Urinary retention, mild","[5]; Stage 2, 34 dosed","1(3)^ n, %"
same,"Urinary tract infection, mild","[5]; Stage 2, 34 dosed","1(3)^ n, %"
same,"Worsening hemorrhoid, mild","[5]; Stage 2, 34 dosed","1(3)^ n, %"
same,effect on systolic BP,[6],normalization of systolic BP
